Read-outs that look alike come from different tables or passages of the source.
What was measured:
[1] = tested on: HCV genotype 1b (Con1) replicon in HUH-7 cells; assay: HCV replicon luciferase reporter assay, genotype 1b; format: cell-based; settings: Hepatitis C virus, Huh-7, 72 h, 3 days incubation, read-out: LE_1b (EC50, range)
Procedure, shortened: (§1)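 Replicon inhibition for both genotypes was measured as Renilla luciferase signal (EnduRen, 7.5 μM final, 2 h) after 3-day, 37° C exposure of replicon-bearing HUH-7 cells in 4% FCS DMEM, 0.5% DMSO. The 1b construct carries S1179I; the 1a H77 construct carries P1496L and S2204I. Twenty-point, 3-fold dilutions were fitted four-parametrically for EC50, and CC50 was taken from multiplexed Cell Titer-Blue.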

[2] = tested on: HCV genotype 1a (H77 strain) replicon in HUH-7 cells; assay: HCV replicon luciferase reporter assay, genotype 1a; format: cell-based; settings: Hepatitis C virus, Huh-7, 72 h, 3 days incubation, read-out: LE_1a (EC50, range)
Procedure, shortened: as §1

[3] = HCV genotype 1b replicon luciferase assay, range class
[4] = HCV genotype 1a replicon luciferase assay, range class
[5] = HCV genotype 1b replicon luciferase
[6] = HCV genotype 1a replicon luciferase

| SMILES | EC50 [1, 3] [nM] | EC50 [2, 4] [nM] | EC50 [1, 5] [nM] | EC50 [2, 6] [nM] |
| --- | --- | --- | --- | --- |
| CC[C@@H]1C[C@@H](C)CC/C=C\[C@@H]2C[C@@]2(C(=O)NS(=O)(=O)C2(C)CC2)NC(=O)[C@@H]2C[C@@H](Oc3nccc4c(OC)cccc34)CN2C(=O)[C@H]1NC(=O)NC(C)(C)C [Compound 3033, (2R,6S,7R,9S,13aS,14aR,16aS,Z)-6-(3-(tert-butyl)ureido)-7-ethyl-2-((5-methoxyisoquinolin-1-yl)oxy)-9-methyl-N-((1-methylcyclopropyl)sulfonyl)-5,16-dioxo-1,2,3,5,6,7,8,9,10,11,13a,14,14a,15,16,16a-hexadecahydrocyclopropa[e]pyrrolo[1,2-a][1,4]diazacyclopentadecine-14a-carboxamide] | 4.82 to 103 | 4.82 to 103 |  |  |
| COc1ccc2c(O[C@@H]3C[C@H]4C(=O)N[C@]5(C(=O)NS(=O)(=O)C6CC6)C[C@H]5/C=C\CC[C@@H](C)C[C@@H](C)[C@H](NC(=O)OC(C)(C)C)C(=O)N4C3)nc(-c3ccc(OC(C)C)cc3)nc2c1 [Compound 3017, tert-butyl ((2R,6S,7R,9R,13aS,14aR,16aS,Z)-14a-((cyclopropylsulfonyl)carbamoyl)-2-((2-(4-isopropoxyphenyl)-7-methoxyquinazolin-4-yl)oxy)-7,9-dimethyl-5,16-dioxo-1,2,3,5,6,7,8,9,10,11,13a,14,14a,15,16,16a-hexadecahydrocyclopropa[e]pyrrolo[1,2-a][1,4]diazacyclopentadecin-6-yl)carbamate] | < 5.46 | < 5.46 |  |  |
| CCOc1cc2ccnc(O[C@@H]3C[C@H]4C(=O)N[C@]5(C(=O)NS(=O)(=O)C6CC6)C[C@H]5/C=C\CC[C@@H](C)C[C@@H](CC)[C@H](NC(=O)OC(C)(C)C)C(=O)N4C3)c2cc1F [Compound 5405, tert-butyl ((2R,6S,7R,9R,13aS,14aR,16aS,Z)-14a-((cyclopropylsulfonyl)carbamoyl)-2-((6-ethoxy-7-fluoroisoquinolin-1-yl)oxy)-7-ethyl-9-methyl-5,16-dioxo-1,2,3,5,6,7,8,9,10,11,13a,14,14a,15,16,16a-hexadecahydrocyclopropa[e]pyrrolo[1,2-a][1,4]diazacyclopentadecin-6-yl)carbamate] |  |  | 0.51 to 1 | 1.01 to 5 |
| C[C@@H]1CC/C=C\[C@@H]2C[C@@]2(C(=O)NS(=O)(=O)C2(C)CC2)NC(=O)[C@@H]2C[C@@H](Oc3ncc(N4CCOCC4)c4ccccc34)CN2C(=O)[C@@H](NC(=O)OC(C)(C)C(F)(F)F)[C@H](C)C1 [Compound 5423, 1,1,1-trifluoro-2-methylpropan-2-yl((2R,6S,7R,9R,13aS,14aR,16aS,Z)-7,9-dimethyl-14a-(((1-methylcyclopropyl)sulfonyl)carbamoyl)-2-((4-morpholinoisoquinolin-1-yl)oxy)-5,16-dioxo-1,2,3,5,6,7,8,9,10,11,13a,14,14a,15,16,16a-hexadecahydrocyclopropa[e]pyrrolo[1,2-a][1,4]diazacyclopentadecin-6-yl)carbamate] |  |  | 0.51 to 1 | 1.01 to 5 |
| CC[C@@H]1C[C@@H](C)CC/C=C\[C@@H]2C[C@@]2(C(=O)NS(=O)(=O)C2(C)CC2)NC(=O)[C@@H]2C[C@@H](Oc3nnc(OC)c4ccccc34)CN2C(=O)[C@H]1NC(=O)OC(C)(C)C [Compound 5025, tert-butyl ((2R,6S,7R,9S,13aS,14aR,16aS,Z)-7-ethyl-2-((4-methoxyphthalazin-1-yl)oxy)-9-methyl-14a-(((1-methylcyclopropyl)sulfonyl)carbamoyl)-5,16-dioxo-1,2,3,5,6,7,8,9,10,11,13a,14,14a,15,16,16a-hexadecahydrocyclopropa[e]pyrrolo[1,2-a][1,4]diazacyclopentadecin-6-yl)carbamate] |  |  | < 5.46 | 4.82 to 103 |

Reference: US9499550B2 (BRISTOL-MYERS SQUIBB COMPANY, priority 2012, dated 2016)
